Results as given in patent US12612412B2, “Antiviral heterocyclic compounds” (Enanta Pharmaceuticals, Inc., priority 2021, dated 2026).

Tested on: genotype A, "Long" strain RSV
Test: RSV-A assay (CPE protection in Hep-2 cells, ATPlite readout)
Assay type: cell-based, Human respiratory syncytial virus (HRSV)
Settings: human respiratory syncytial virus, RSV-A Long strain, MOI 0.1, CPE protection, read-out: Human RSV-A (“Long”) EC50
Outline: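 ATPlite luminescence (cellular ATP) served as the measure of cell health after 5 days of infection. Hep-2 cells at 8,000 per well received duplicate 2-fold compound dilutions plus virus at MOI 0.1, and EC50 was calculated from CPE protection.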

EC50 [nM]	SMILES
< 200	COc1cc(C(=O)NC[C@](O)(c2cc3c(c(C4CCC(F)(F)CC4)n2)OC[C@]3(C)C(N)=O)C(F)(F)F)cc2cn(C3CC3)nc12 [Example 1268]
< 200	COc1cc(C(=O)NC[C@](O)(c2cc3c(c(-c4ccc(Cl)cc4Cl)n2)OC[C@]3(C)C(N)=O)C2CC2)cc2cn(C3CC3)nc12 [Example 1279]
< 200	Cc1cnc2c(OC(F)F)cc(C(=O)NC[C@](O)(c3cc4c(c(-c5cc(F)c(F)c(Cl)c5)n3)OC[C@]4(C)C(N)=O)C3CC3)cc2c1 [Example 1213]
< 200	C[C@]1(C(N)=O)COc2c1cc([C@@](O)(CNC(=O)c1cc(OC3CC3)c3nn(C(F)F)cc3c1)C1CC1)nc2-c1ccc(F)c(F)c1Cl [Example 1197]
< 200	COc1cc(C(=O)NC[C@](O)(c2cc3c(c(N4CCC(F)(F)CC4)n2)OC[C@]3(C)C(N)=O)C(F)(F)F)cc2cn(C3CC3)nc12 [Example 1270]
< 200	COc1cc(C(=O)NC[C@](O)(c2cc3c(c(N4CCCC(F)(F)C4)n2)OC[C@]3(C)C(N)=O)C(F)(F)F)cc2cn(C3CC3)nc12 [Example 1271]
< 200	CNC(=O)[C@@]1(C)COc2c1cc([C@](O)(CNC(=O)c1cc(OC)c3nn(C4CC4)cc3c1)C(F)(F)F)nc2-c1ccc(F)c(F)c1Cl [Example 1201]
< 200	COc1cc(C(=O)NC[C@](O)(c2cc3c(c(-c4cc(Cl)ccc4Cl)n2)OC[C@]3(C)C(N)=O)C(F)(F)F)cc2cn(C3CC3)nc12 [Example 1255]
> 200	COc1cc(C(=O)NC[C@@](O)(c2cc3c(c(-c4ccc(C(F)F)cc4)n2)OC[C@]3(C)C(N)=O)C(F)(F)F)cc2cn(C3CC3)nc12 [Example 895]
< 200	Cc1cnc2c(OC(F)F)cc(C(=O)NC[C@](O)(c3cc4c(c(-c5ccc(C(F)(F)F)cc5)n3)OC[C@]4(C)C(N)=O)C3CC3)cc2c1 [Example 1209]
< 200	[2H]c1nc2c(OC)cc(C(=O)NC[C@](O)(c3cc4c(c(-c5cc(Cl)c(F)cc5F)n3)OC[C@]4(C)C(N)=O)C3CC3)cc2cc1Br [Example 1216]
< 200	CNC(=O)[C@@]1(C)COc2c1cc([C@@](O)(CNC(=O)c1cc(OC)c3nn(C4CC4)cc3c1)C1CC1)nc2-c1ccc(F)cc1 [Example 1290]
< 200	Cc1cnc2c(OC(F)F)cc(C(=O)NC[C@](O)(c3cc4c(c(-c5cc(Cl)ccc5F)n3)OC[C@]4(C)C(N)=O)C3CC3)cc2c1 [Example 1200]
< 200	COc1cc(C(=O)NC[C@](O)(c2cc3c(c(-c4cccc(Br)c4F)n2)OC[C@]3(C)C(N)=O)C(F)(F)F)cc2cn(C3CC3)nc12 [Example 1225]
< 200	COc1cc(C(=O)NC[C@](O)(c2cc3c(c(-c4ccc(F)cc4)n2)OC[C@]3(C)C(=O)NCC(F)(F)F)C(F)(F)F)cc2cn(C3CC3)nc12 [Example 1173]
< 200	[2H]C([2H])([2H])c1nc2c(OC)cc(C(=O)NC[C@](O)(c3cc4c(c(-c5cc(Br)c(F)cc5F)n3)OC[C@]4(C)C(N)=O)C3CC3)cc2cc1Cl [Example 1272]
< 200	C[C@]1(C(N)=O)COc2c1cc([C@@](O)(CNC(=O)c1cc(OC3CC3)c3nn(C(F)F)cc3c1)C1CC1)nc2-c1cc(Br)c(F)cc1F [Example 1086]
> 200	COc1cc(C(=O)NC[C@](O)(c2cc3c(c(-c4ccc(F)c(Cl)c4)n2)OC[C@@]3(CF)C(N)=O)C(F)(F)F)ccc1OC1CC1 [Example 1048]
< 200	COc1cc(C(=O)NC[C@](O)(c2cc3c(c(-c4cc(Cl)ccc4Cl)n2)OC[C@]3(C)C(N)=O)C2CC2)cc2cn(C3CC3)nc12 [Example 1280]

Same assay, conditions: human respiratory syncytial virus, genotype A “Long” strain RSV, MOI 0.1, CPE protection, read-out: Human RSV-A (“Long”)

EC50 [nM]	SMILES
> 200	Cc1ccn2ncc(C(=O)NC[C@](O)(c3cc4c(c(-c5ccc(F)cc5)n3)OC[C@]4(C)C(N)=O)C(F)(F)F)c2n1 [Example 358]
> 200	CC(C)c1csc(C(=O)NC[C@](O)(c2cc3c(c(-c4ccc(F)cc4)n2)OC[C@]3(C)C(N)=O)C(F)(F)F)n1 [Example 437]
< 200	COc1cc2cc(C(=O)NC[C@](O)(c3cc4c(c(-c5ccc(F)cc5)n3)OC[C@]4(C)C(N)=O)C(F)(F)F)ccc2nc1C [Example 326]
> 200	Cc1ncccc1C(=O)NC[C@](O)(c1cc2c(c(-c3ccc(F)cc3)n1)OC[C@]2(C)C(N)=O)C(F)(F)F [Example 334]
< 200	C[C@]1(C(N)=O)COc2c1cc([C@@](O)(CNC(=O)c1cc(Cl)c3nnc(C(F)(F)F)cc3c1)C(F)(F)F)nc2-c1ccc(F)cc1 [Example 98]
> 200	C[C@]1(C(N)=O)COc2c1cc([C@@](O)(CNC(=O)c1cc(Cl)c3cnn(C4CC4)c3c1)C(F)(F)F)nc2-c1ccc(F)cc1 [Example 145]
< 200	CC[C@]1(C(N)=O)COc2c1cc([C@@](O)(CNC(=O)c1ccc(OC3CC3)c(OC)c1)C(F)(F)F)nc2-c1ccc(F)cc1 [Example 241]
> 200	C[C@]1(C(N)=O)COc2c1cc([C@@](O)(CNC(=O)c1cnc3cnccn13)C(F)(F)F)nc2-c1ccc(F)cc1 [Example 436]
> 200	C[C@]1(C(N)=O)COc2c1cc([C@@](O)(CNC(=O)c1nccc3[nH]ccc13)C(F)(F)F)nc2-c1ccc(F)cc1 [Example 388]
< 200	COc1cc(C(=O)NC[C@](O)(c2cc3c(c(-c4ccc(F)cc4)n2)OC[C@]3(C)C(N)=O)C2CC2)cn2cc(C3CC3)nc12 [Example 320]
> 200	C[C@]1(C(N)=O)COc2c1cc([C@@](O)(CNC(=O)c1ccc3ccsc3c1)C(F)(F)F)nc2-c1ccc(F)cc1 [Example 346]
> 200	C[C@]1(C(N)=O)COc2c1cc([C@@](O)(CNC(=O)c1cnc3nccn3c1)C(F)(F)F)nc2-c1ccc(F)cc1 [Example 374]
< 200	C[C@@H](O)CNc1nc2ccc(C(=O)NC[C@](O)(c3cc4c(c(-c5ccc(F)cc5)n3)OC[C@]4(C)C(N)=O)C(F)(F)F)cc2s1 [Example 164]
< 200	C[C@]1(C(N)=O)COc2c1cc([C@@](O)(CNC(=O)c1ccc(F)c3cc[nH]c13)C(F)(F)F)nc2-c1ccc(F)cc1 [Example 348]
> 200	COc1cccc(-c2nn(-c3ccccc3)cc2C(=O)NC[C@](O)(c2cc3c(c(-c4ccc(F)cc4)n2)OC[C@]3(C)C(N)=O)C(F)(F)F)c1 [Example 447]
> 200	C[C@]1(C(N)=O)COc2c1cc([C@@](O)(CNC(=O)c1cc(O)c3[nH]ncc3c1)C(F)(F)F)nc2-c1ccc(F)cc1 [Example 111]
> 200	C[C@]1(C(N)=O)COc2c1cc([C@@](O)(CNC(=O)c1cc(=O)[nH]c(C3CC3)n1)C(F)(F)F)nc2-c1ccc(F)cc1 [Example 372]
< 200	CC(C)(O)CNC(=O)Nc1cc(C(=O)NC[C@](O)(c2cc3c(c(-c4ccc(F)cc4)n2)OC[C@]3(C)C(N)=O)C(F)(F)F)cc2cc(C3CC3)cnc12 [Example 215]
> 200	[2H]C([2H])([2H])NC(=O)Nc1cc(C(=O)NC[C@](O)(c2cc3c(c(-c4ccc(F)cc4)n2)OC[C@]3(C)C(N)=O)C(F)(F)F)cc2ccc(C)nc12 [Example 330]

EC50 [nM]	SMILES
> 200	C[C@]1(C(N)=O)COc2c1cc([C@@](O)(CNC(=O)c1ccc3nc(NCCO)sc3c1)C(F)(F)F)nc2-c1ccc(F)cc1 [Example 162]
> 200	Cc1nc2cc(C(=O)NC[C@](O)(c3cc4c(c(-c5ccc(F)cc5)n3)OC[C@]4(C)C(N)=O)C(F)(F)F)ccc2o1 [Example 375]
> 200	C[C@]1(C(N)=O)COc2c1cc([C@@](O)(CNC(=O)c1ccno1)C(F)(F)F)nc2-c1ccc(F)cc1 [Example 364]
< 200	C[C@]1(C(N)=O)COc2c1cc([C@@](O)(CNC(=O)c1ccn3nc(C4CC4)cc3c1)C1CC1)nc2-c1ccc(F)cc1 [Example 332]
> 200	C[C@]1(C(N)=O)COc2c1cc([C@@](O)(CNC(=O)c1cnc3[nH]ccc3c1Cl)C(F)(F)F)nc2-c1ccc(F)cc1 [Example 333]
> 200	Cc1ccsc1C(=O)NC[C@](O)(c1cc2c(c(-c3ccc(F)cc3)n1)OC[C@]2(C)C(N)=O)C(F)(F)F [Example 386]
> 200	C[C@]1(C(N)=O)COc2c1cc([C@@](O)(CNC(=O)c1ccc3nc(N)cn3c1)C(F)(F)F)nc2-c1ccc(F)cc1 [Example 56]
< 200	C[C@@H](O)COc1ccc(C(=O)NC[C@](O)(c2cc3c(c(-c4ccc(F)cc4)n2)OC[C@]3(C)C(N)=O)C2CC2)cc1OC1CC1 [Example 317]
< 200	C[C@]1(C(N)=O)COc2c1cc([C@@](O)(CNC(=O)c1ccc3ccnn3c1)C(F)(F)F)nc2-c1ccc(F)cc1 [Example 418]
> 200	C[C@]1(C(N)=O)COc2c1cc([C@@](O)(CNC(=O)c1cccc3c1OCO3)C(F)(F)F)nc2-c1ccc(F)cc1 [Example 382]
> 200	Cn1ccc(C(=O)NC[C@](O)(c2cc3c(c(-c4ccc(F)cc4)n2)OC[C@]3(C)C(N)=O)C(F)(F)F)c1 [Example 407]
> 200	C[C@]1(C(N)=O)COc2c1cc([C@@](O)(CNC(=O)c1c[nH]c3ncc(F)cc13)C(F)(F)F)nc2-c1ccc(F)cc1 [Example 353]
< 200	C[C@]1(C(N)=O)COc2c1cc([C@@](O)(CNC(=O)c1ccn3nc(C4CC4)cc3c1)C(F)(F)F)nc2-c1ccc(F)cc1 [Example 88]
> 200	C[C@]1(C(N)=O)COc2c1cc([C@@](O)(CNC(=O)c1nc(-c3ccccc3)c[nH]1)C(F)(F)F)nc2-c1ccc(F)cc1 [Example 212]
< 200	NC(=O)C1(C(F)F)COc2c1cc([C@@](O)(CNC(=O)c1cc(F)c3nc(N)sc3c1)C(F)(F)F)nc2-c1ccc(F)cc1 (some centres unmarked) [Example 258]
< 200	CCc1ccc(Nc2cc(C(=O)NC[C@](O)(c3cc4c(c(-c5ccc(F)cc5)n3)OC[C@]4(C)C(N)=O)C(F)(F)F)cc3cc(C)cnc23)nn1 [Example 117]
< 200	Cc1nc2c(F)cc(C(=O)NC[C@](O)(c3cc4c(c(-c5ccc(F)cc5)n3)OC[C@]4(C)C(N)=O)C(F)(F)F)cc2s1 [Example 15]
< 200	Cc1c(C(=O)NC[C@](O)(c2cc3c(c(-c4ccc(F)cc4)n2)OC[C@]3(C)C(N)=O)C(F)(F)F)cnn1-c1ccccc1 [Example 458]
